# Measured values from patent US20170355705A1 (GlaxoSmithKline Intellectual Property (No.2) Limited, priority 2014, published 2017).
# Structures can show the parent of a compound that is named as a salt.
# Target: T1, SIRT1 (Homo sapiens, UniProt Q96EB6)
# T1 sequence (Q96EB6 1-747): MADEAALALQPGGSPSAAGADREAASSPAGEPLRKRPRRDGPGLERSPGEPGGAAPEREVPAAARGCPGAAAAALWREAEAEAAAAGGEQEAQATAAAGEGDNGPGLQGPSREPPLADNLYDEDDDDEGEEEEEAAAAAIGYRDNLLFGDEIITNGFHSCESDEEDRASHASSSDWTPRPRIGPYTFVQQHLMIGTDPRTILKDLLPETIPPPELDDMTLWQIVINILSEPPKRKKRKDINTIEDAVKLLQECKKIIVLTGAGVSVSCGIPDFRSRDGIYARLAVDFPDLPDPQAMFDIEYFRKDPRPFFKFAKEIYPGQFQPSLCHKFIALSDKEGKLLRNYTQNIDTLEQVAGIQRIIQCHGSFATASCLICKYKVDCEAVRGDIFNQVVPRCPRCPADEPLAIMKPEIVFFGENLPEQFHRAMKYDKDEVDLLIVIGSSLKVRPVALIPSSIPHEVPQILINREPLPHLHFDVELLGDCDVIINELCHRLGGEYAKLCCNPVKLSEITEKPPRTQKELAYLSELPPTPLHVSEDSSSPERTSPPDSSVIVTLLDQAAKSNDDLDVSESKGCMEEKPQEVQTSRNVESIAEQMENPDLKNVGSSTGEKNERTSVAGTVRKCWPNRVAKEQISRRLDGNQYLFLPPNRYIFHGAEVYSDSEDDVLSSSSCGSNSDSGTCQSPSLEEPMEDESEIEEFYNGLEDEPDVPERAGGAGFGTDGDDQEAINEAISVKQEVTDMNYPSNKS
# Test: Trp mass spectrometry assay of SIRT1 activity (EC1.5, percent maximum activation)
# Type: biochemical
# Settings: Trp mass spectrometry assay; for TRP Activity (EC1.5): EC1.5 = concentration giving 150% activation of SIRT1
# Procedure, shortened: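 N-terminal His-tagged human SIRT1, expressed in BL21(DE3) and purified, was incubated 25 min with an acetylated Trp peptide and NAD plus test compound at varying concentrations, then quenched with formic acid. OAADPR or deacetylated peptide was quantified by mass spectrometry versus compound-free control; EC1.5 is the concentration giving 50% activity increase, with percent maximum activation.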
# [1] = 0.5 μM peptide substrate, 120 μM βNAD+, 10 nM SIRT1, 25 minutes at 25° C.
# [2] = percent maximum activation of SIRT1
SMILES,"TRP Activity (EC1.5, concentration of test compound that results in 150% activation of SIRT1) [1]",TRP MAX RESP (percent maximum fold activation) [1],TRP Activity (EC1.5),TRP MAX RESP (percent maximum fold activation) [2]
"Cc1cc(-c2ccc3c(n2)N(C(=O)Nc2cc(-c4cnc(C)o4)ccn2)C2CCN3C2)ccn1 (stereo in doubt) [Example 335, (4S)-N-(4-(2-methyloxazol-5-yl)pyridin-2-yl)-7-(2-methylpyridin-4-yl)-3,4-dihydro-1,4-methanopyrido[2,3-b][1,4]diazepine-5(2H)-carboxamide, Hydrochloride]",B (EC1.5 1-25 μM),A (Fold activation ≧150%),–,–
"O=C(Nc1ccccn1)N1c2nc(-c3cccc(C(F)(F)F)c3)c(Cl)cc2N2CC[C@H]1C2 [Example 35, (4S)-8-chloro-N-(pyridin-2-yl)-7-(3-(trifluoromethyl)phenyl)-3,4-dihydro-1,4-methanopyrido[2,3-b][1,4]diazepine-5(2H)-carboxamide]",–,–,A (EC1.5<1 μM),A (Fold activation ≧150%)
"O=C(Nc1ccc(OC[C@H](O)CO)cn1)N1c2nc(-c3cccc(C(F)(F)F)c3)c(Cl)cc2N2CC[C@H]1C2 [Example 76, (4S)-8-chloro-N-(5-((R)-2,3-dihydroxypropoxy)pyridin-2-yl)-7-(3-(trifluoromethyl)phenyl)-3,4-dihydro-1,4-methanopyrido[2,3-b][1,4]diazepine-5(2H)-carboxamide]",–,–,A (EC1.5<1 μM),A (Fold activation ≧150%)
"Cc1cc(-c2nc3c(cc2Cl)N2CC[C@@H](C2)N3C(=O)Nc2cc(OC[C@H](O)CO)ccn2)ccn1 [Example 38, (4S)-8-chloro-N-(4-((R)-2,3-dihydroxypropoxy)pyridin-2-yl)-7-(2-methylpyridin-4-yl)-3,4-dihydro-1,4-methanopyrido[2,3-b][1,4]diazepine-5(2H)-carboxamide]",–,–,B (EC1.5 1-25 μM),A (Fold activation ≧150%)
"O=C(Nc1cncc(OC[C@H](O)CO)n1)N1c2nc(-c3cccc(C(F)(F)F)c3)c(Cl)cc2N2CC[C@H]1C2 [Example 65, (4S)-8-chloro-N-(6-((R)-2,3-dihydroxypropoxy)pyrazin-2-yl)-7-(3-(trifluoromethyl)phenyl)-3,4-dihydro-1,4-methanopyrido[2,3-b][1,4]diazepine-5(2H)-carboxamide]",–,–,A (EC1.5<1 μM),A (Fold activation ≧150%)
"O=C(Nc1cncc(OCCO)n1)N1c2nc(-c3cccc(C(F)(F)F)c3)c(Cl)cc2N2CC[C@H]1C2 [Example 69, (4S)-8-chloro-N-(6-(2-hydroxyethoxy)pyrazin-2-yl)-7-(3-(trifluoromethyl)phenyl)-3,4-dihydro-1,4-methanopyrido[2,3-b][1,4]diazepine-5(2H)-carboxamide]",–,–,A (EC1.5<1 μM),A (Fold activation ≧150%)
"O=C(Nc1cnccn1)N1c2nc(-c3ccc(C4CC4)nc3)ccc2N2CC[C@H]1C2 [Example 180, (4S)-7-(6-cyclopropylpyridin-3-yl)-N-(pyrazin-2-yl)-3,4-dihydro-1,4-methanopyrido[2,3-b][1,4]diazepine-5(2H)-carboxamide]",–,–,B (EC1.5 1-25 μM),A (Fold activation ≧150%)
"Cc1cc(-c2ccc3c(n2)N(C(=O)N2CCCC2)[C@H]2CCN3C2)ccn1 [Example 173, ((4S)-7-(2-methylpyridin-4-yl)-3,4-dihydro-1,4-methanopyrido[2,3-b][1,4]diazepin-5(2H)-yl)(pyrrolidin-1-yl)methanone]",–,–,C (EC1.5>25 μM),B (Fold Activation <150%)
"Cl.O=C(Nc1cc(OC[C@@H](O)CO)ccn1)N1c2nc(-c3cccc(C(F)(F)F)c3)c(Cl)cc2N2CC[C@H]1C2 [Example 64, (4S)-8-chloro-N-(4-((S)-2,3-dihydroxypropoxy)pyridin-2-yl)-7-(3-(trifluoromethyl)phenyl)-3,4-dihydro-1,4-methanopyrido[2,3-b][1,4]diazepine-5(2H)-carboxamide, Hydrochloride]",–,–,B (EC1.5 1-25 μM),A (Fold activation ≧150%)
"O=C(Nc1cc(OC[C@@H](O)CO)ccn1)N1c2nc(-c3cccc(C(F)(F)F)c3)c(Cl)cc2N2CC[C@H]1C2 [Example 63, (4S)-8-chloro-N-(4-((S)-2,3-dihydroxypropoxy)pyridin-2-yl)-7-(3-(trifluoromethyl)phenyl)-3,4-dihydro-1,4-methanopyrido[2,3-b][1,4]diazepine-5(2H)-carboxamide]",–,–,B (EC1.5 1-25 μM),A (Fold activation ≧150%)
"Cc1cc(-c2nc3c(cc2Cl)N2CC[C@@H](C2)N3C(=O)Nc2cc(OC[C@@H](O)CO)ccn2)ccn1 [Example 27, (4S)-8-chloro-N-(4-((S)-2,3-dihydroxypropoxy)pyridin-2-yl)-7-(2-methylpyridin-4-yl)-3,4-dihydro-1,4-methanopyrido[2,3-b][1,4]diazepine-5(2H)-carboxamide]",–,–,B (EC1.5 1-25 μM),A (Fold activation ≧150%)
"Cc1cc(-c2ccc3c(n2)N(C(=O)N2CCO[C@H](C)C2)[C@H]2CCN3C2)ccn1.Cl [Example 232, ((R)-2-methylmorpholino)((4S)-7-(2-methylpyridin-4-yl)-3,4-dihydro-1,4-methanopyrido[2,3-b][1,4]diazepin-5(2H)-yl)methanone hydrochloride]",C (EC1.5>25 μM),B (Fold Activation <150%),–,–
"Cc1cc(-c2ccc3c(n2)N(C(=O)Nc2cccnn2)[C@H]2CCN3C2)ccn1 [Example 158, (4S)-7-(2-methylpyridin-4-yl)-N-(pyridazin-3-yl)-3,4-dihydro-1,4-methanopyrido[2,3-b][1,4]diazepine-5(2H)-carboxamide]",–,–,B (EC1.5 1-25 μM),A (Fold activation ≧150%)
"Cc1cc(-c2ccc3c(n2)N(C(=O)Nc2ccc4[nH]ncc4n2)[C@H]2CCN3C2)ccn1 [Example 133, (4S)-7-(2-methylpyridin-4-yl)-N-(1H-pyrazolo[4,3-b]pyridin-5-yl)-3,4-dihydro-1,4-methanopyrido[2,3-b][1,4]diazepine-5(2H)-carboxamide]",–,–,A (EC1.5<1 μM),A (Fold activation ≧150%)
Cc1cc(-c2ccc3c(n2)N(C(=O)Nc2nccc(-c4cnco4)n2)[C@H]2CCN3C2)ccn1 [Example 355],–,A (Fold activation ≧150%),–,–
"N#Cc1ccc(-c2ccc3c(n2)N(C(=O)Nc2cnccn2)[C@H]2CCN3C2)cn1 [Example 219, (4S)-7-(6-cyanopyridin-3-yl)-N-(pyrazin-2-yl)-3,4-dihydro-1,4-methanopyrido[2,3-b][1,4]diazepine-5(2H)-carboxamide]",C (EC1.5>25 μM),B (Fold Activation <150%),–,–
"O=C(Nc1ccnc(OC[C@@H](O)CO)c1)N1c2nc(-c3cccc(C(F)F)c3)c(Cl)cc2N2CC[C@H]1C2 [Example 107, (4S)-8-chloro-7-(3-(difluoromethyl)phenyl)-N-(2-((S)-2,3-dihydroxypropoxy)pyridin-4-yl)-3,4-dihydro-1,4-methanopyrido[2,3-b][1,4]diazepine-5(2H)-carboxamide]",–,–,A (EC1.5<1 μM),A (Fold activation ≧150%)
"O=C(Nc1ncc(OC[C@H](O)CO)cn1)N1c2nc(-c3cccc(C(F)(F)F)c3)c(Cl)cc2N2CC[C@H]1C2 [Example 82, (4S)-8-chloro-N-(5-((R)-2,3-dihydroxypropoxy)pyrimidin-2-yl)-7-(3-(trifluoromethyl)phenyl)-3,4-dihydro-1,4-methanopyrido[2,3-b][1,4]diazepine-5(2H)-carboxamide]",–,–,B (EC1.5 1-25 μM),A (Fold activation ≧150%)
"Cc1ccc(-c2nc3c(cc2C)N2CC[C@@H](C2)N3C(=O)Nc2ccccn2)cn1 [Example 8, (4S)-8-methyl-7-(6-methylpyridin-3-yl)-N-(pyridin-2-yl)-3,4-dihydro-1,4-methanopyrido[2,3-b][1,4]diazepine-5(2H)-carboxamide]",–,–,B (EC1.5 1-25 μM),A (Fold activation ≧150%)
CC[C@@H]1CN(c2ccc3c(n2)N(C(=O)Nc2cnccn2)[C@H]2CCN3C2)CCO1,–,A (Fold activation ≧150%),–,–
